Results as given in patent publication US11267826B2, “Penicillin-binding protein inhibitors” (priority 2017, dated 2022).

Tests used:
[1] = system: S. aureus ATCC 29213; assay: Broth microdilution MIC assay, S. aureus; format: cell-based; conditions: broth microdilution, 16-20 hours at 37° C.; for MIC: Staphylococcus aureus, ATCC29213, read-out: S. aureus 29213 MIC
Procedure: (§1) To determine the ability of test compounds to potentiate the inhibition of the growth of bacterial strains, classic cell based broth microdilution MIC assays were employed. MIC assays are performed according to CLSI methods except where otherwise noted (CLSI, 2011 and CLSI, 2009). The reference strain S. aureus ATCC 29213 and the hyper-permeable E. coli 901C were used to determine the ability of the PBP compounds to inhibit bacterial growth. Briefly, cryo-preserved bacterial cultures of clinical strains are streaked for isolation on appropriate agar medium, in this case Mueller Hinton II agar. Following incubation to allow formation of colonies these plates are sealed with parafilm and stored refrigerated for up to two weeks. For preparation of assay inocula and to ensure low variability, at least 5 colonies are picked from the agar plates with an inoculating loop and aseptically transferred to a culture tube containing 3 mL of Mueller-Hinton Broth (supplemented with divalent cations to required levels based on Manufacturers' certification). The broth culture is grown for 3-5 hours at 37° C. with shaking at 200 rpm. Meanwhile, 2-fold serial dilutions of test compounds are conducted in a 96 well plate with a final volume of 75 μL per well at 2-fold the final desired concentration. After the dilution plates are set up the growing cultures are then diluted in a cuvette containing MH II broth and the optical density is measured at 600 nm. Inocula are diluted such that 75 μL of this culture in Mueller-Hinton Broth results in a starting bacterial concentration of 5×10^5 CFU/mL when added to the dilution plates. The plates are incubated 16-20 hours at 37° C. The MIC is read visually as the lowest concentration well with no bacterial growth.

[2] = system: hyper-permeable E. coli 901C; assay: Broth microdilution MIC assay, hyper-permeable E. coli; format: cell-based; conditions: for MIC: Escherichia coli, read-out: E. coli 901C MIC
Procedure: as §1

Row | SMILES | MIC [1] [µg/mL] | MIC [2] [µg/mL] | S. aureus 29213 MIC [1] | E. coli 901C MIC ([2]; broth microdilution, 16-20 hours at 37° C.)
1 | NCCNc1nc(/C(=N/O)C(=O)N[C@H]2Cc3cccc(C(=O)O)c3OB2O)cs1 [Example 10, (R,Z)-3-(2-(2-((2-aminoethyl)amino)thiazol-4-yl)-2-(hydroxyimino)acetamido)-2-hydroxy-3,4-dihydro-2H-benzo[e][1,2]oxaborinine-8-carboxylic Acid] | 64 to 128 | > 128 | – | –
2 | Cc1cc(C)n2c1C=C1C=CC(CCC(=O)NCCON=C(C(=O)N[C@H]3Cc4cccc(C(=O)O)c4OB3O)c3csc(N)n3)=[N+]1[B-]2(F)F [Example 125, (R)-3-(2-(2-aminothiazol-4-yl)-2-((2-(3-(5,5-difluoro-7,9-dimethyl-5H-4λ^4,5λ^4-dipyrrolo[1,2-c:2′,1′-f][1,3,2]diazaborinin-3-yl)propanamido)ethoxy)imino)acetamido)-2-hydroxy-3,4-dihydro-2H-benzo[e][1,2]oxaborinine-8-carboxylic Acid] | – | – | A (A represents an MIC >128 μg/mL) | A (A represents an MIC >128 μg/mL)
3 | Nc1nc(C(=CCCC(=O)O)C(=O)N[C@H]2Cc3cccc(C(=O)O)c3OB2O)cs1 [Example 84, (R)-3-(2-(2-aminothiazol-4-yl)-5-carboxypent-2-enamido)-2-hydroxy-3,4-dihydro-2H-benzo[e][1,2]oxaborinine-8-carboxylic Acid] | > 128 | < 64 | – | –
4 | O=C(N[C@H]1Cc2cccc(C(=O)O)c2OB1O)/C(=N\O)c1ccc2c(c1)CNC2 [Example 8, (R,Z)-2-hydroxy-3-(2-(hydroxyimino)-2-(isoindolin-5-yl)acetamido)-3,4-dihydro-2H-benzo[e][1,2]oxaborinine-8-carboxylic Acid] | < 64 | < 64 | – | –
5 | Nc1nc(/C(=N/OC2CCNCC2)C(=O)N[C@H]2Cc3cccc(C(=O)O)c3OB2O)cs1 [Example 51, (R,Z)-3-(2-(2-aminothiazol-4-yl)-2-((piperidin-4-yloxy)imino)acetamido)-2-hydroxy-3,4-dihydro-2H-benzo[e][1,2]oxaborinine-8-carboxylic Acid] | > 128 | 64 to 128 | – | –
6 | O=C(N[C@H]1Cc2cccc(C(=O)O)c2OB1O)/C(=N\O)c1csc(NCCc2ccncc2)n1 [Example 123, (R,Z)-2-hydroxy-3-(2-(hydroxyimino)-2-(2-((2-(pyridin-4-yl)ethyl)amino)thiazol-4-yl)acetamido)-3,4-dihydro-2H-benzo[e][1,2]oxaborinine-8-carboxylic Acid] | < 64 | > 128 | – | –
7 | O=C(N[C@H]1Cc2cccc(C(=O)O)c2OB1O)/C(=N\O)c1csc(NCc2ccccn2)n1 [Example 121, (R,Z)-2-hydroxy-3-(2-(hydroxyimino)-2-(2-((pyridin-2-ylmethyl)amino)thiazol-4-yl)acetamido)-3,4-dihydro-2H-benzo[e][1,2]oxaborinine-8-carboxylic Acid] | < 64 | > 128 | – | –
8 | Nc1nc(/C(=N/OCC(F)F)C(=O)N[C@H]2Cc3cccc(C(=O)O)c3OB2O)cs1 [Example 114, (R,Z)-3-(2-(2-aminothiazol-4-yl)-2-((2,2-difluoroethoxy)imino)acetamido)-2-hydroxy-3,4-dihydro-2H-benzo[e][1,2]oxaborinine-8-carboxylic Acid] | 64 to 128 | < 64 | – | –
9 | CO/N=C(\C(=O)N[C@H]1Cc2cccc(C(=O)O)c2OB1O)c1cccnc1 [Example 4, (R,Z)-2-hydroxy-3-(2-(methoxyimino)-2-(pyridin-3-yl)acetamido)-3,4-dihydro-2H-benzo[e][1,2]oxaborinine-8-carboxylic Acid] | 64 to 128 | > 128 | – | –
10 | Nc1nc(/C(=N/O)C(=O)N[C@H]2Cc3ccc(CCC(=O)O)c(C(=O)O)c3OB2O)cs1 [Example 28, (R,Z)-3-(2-(2-aminothiazol-4-yl)-2-(hydroxyimino)acetamido)-7-(2-carboxyethyl)-2-hydroxy-3,4-dihydro-2H-benzo[e][1,2]oxaborinine-8-carboxylic Acid] | > 128 | > 128 | – | –
11 | O=C(N[C@H]1Cc2cccc(C(=O)O)c2OB1O)/C(=N\O)c1csc(NCCc2ccccn2)n1 [Example 122, (R,Z)-2-hydroxy-3-(2-(hydroxyimino)-2-(2-((2-(pyridin-2-yl)ethyl)amino)thiazol-4-yl)acetamido)-3,4-dihydro-2H-benzo[e][1,2]oxaborinine-8-carboxylic Acid] | < 64 | > 128 | – | –
12 | Nc1nc(/C(=N/OC2CNC2)C(=O)N[C@H]2Cc3cccc(C(=O)O)c3OB2O)cs1 [Example 53, (R,Z)-3-(2-(2-aminothiazol-4-yl)-2-((azetidin-3-yloxy)imino)acetamido)-2-hydroxy-3,4-dihydro-2H-benzo[e][1,2]oxaborinine-8-carboxylic Acid] | > 128 | 64 to 128 | – | –
13 | O=C(N[C@H]1Cc2cccc(C(=O)O)c2OB1O)/C(=N\O)c1csc(NCCF)n1 [Example 101, (R,Z)-3-(2-(2-((2-fluoroethyl)amino)thiazol-4-yl)-2-(hydroxyimino)acetamido)-2-hydroxy-3,4-dihydro-2H-benzo[e][1,2]oxaborinine-8-carboxylic Acid] | > 128 | 64 to 128 | – | –
14 | Nc1ncc(C(=NO)C(=O)N[C@H]2Cc3cccc(C(=O)O)c3OB2O)s1 (stereo in doubt) [Example 96, (R,E)-3-(2-(2-aminothiazol-5-yl)-2-(hydroxyimino)acetamido)-2-hydroxy-3,4-dihydro-2H-benzo[e][1,2]oxaborinine-8-carboxylic Acid] | 64 to 128 | > 128 | – | –
15 | O=C(N[C@H]1Cc2cccc(C(=O)O)c2OB1O)/C(=N/O)c1nnn[nH]1 [Example 103, (R,E)-2-hydroxy-3-(2-(hydroxyimino)-2-(1H-tetrazol-5-yl)acetamido)-3,4-dihydro-2H-benzo[e][1,2]oxaborinine-8-carboxylic Acid] | > 128 | > 128 | – | –
16 | Nc1nc(C(=NO)C(=O)NC2Cc3cccc(C(=O)O)c3OB2O)ns1 (stereo in doubt) [Example 20, (S,Z)-3-(2-(5-amino-1,2,4-thiadiazol-3-yl)-2-(hydroxyimino)acetamido)-2-hydroxy-3,4-dihydro-2H-benzo[e][1,2]oxaborinine-8-carboxylic Acid] | > 128 | > 128 | – | –
17 | COc1cc2c(c(C(=O)O)c1)OB(O)[C@@H](NC(=O)/C(=N\OC(C)(C)C(=O)O)c1csc(N)n1)C2 [Example 79, (R,Z)-3-(2-(2-aminothiazol-4-yl)-2-(((2-carboxypropan-2-yl)oxy)imino)acetamido)-2-hydroxy-6-methoxy-3,4-dihydro-2H-benzo[e][1,2]oxaborinine-8-carboxylic Acid] | > 128 | < 64 | – | –
18 | Nc1nc(/C(=N/O)C(=O)N[C@H]2Cc3cc(OC(F)(F)F)cc(C(=O)O)c3OB2O)cs1 [Example 45, (R,Z)-3-(2-(2-aminothiazol-4-yl)-2-(hydroxyimino)acetamido)-2-hydroxy-6-(trifluoromethoxy)-3,4-dihydro-2H-benzo[e][1,2]oxaborinine-8-carboxylic Acid] | < 64 | < 64 | – | –
19 | Nc1nc(/C(=N/O)C(=O)N[C@H]2Cc3ccc(C=O)c(C(=O)O)c3OB2O)cs1 [Example 24, (R,Z)-3-(2-(2-aminothiazol-4-yl)-2-(hydroxyimino)acetamido)-7-formyl-2-hydroxy-3,4-dihydro-2H-benzo[e][1,2]oxaborinine-8-carboxylic Acid] | 64 to 128 | > 128 | – | –
20 | CC(C)(O/N=C(\C(=O)N[C@H]1Cc2cccc(C(=O)O)c2OB1O)c1csc(N)n1)C(=O)N[C@@H](CCC(=O)O)C(=O)O [Example 77, (2-((((Z)-1-(2-aminothiazol-4-yl)-2-(((R)-8-carboxy-2-hydroxy-3,4-dihydro-2H-benzo[e][1,2]oxaborinin-3-yl)amino)-2-oxoethylidene)amino)oxy)-2-methylpropanoyl)-L-glutamic Acid] | > 128 | < 64 | – | –
21 | O=C(N[C@H]1Cc2cccc(C(=O)O)c2OB1O)/C(=N\O)c1csc(S)n1 [Example 91, (R,Z)-2-hydroxy-3-(2-(hydroxyimino)-2-(2-mercaptothiazol-4-yl)acetamido)-3,4-dihydro-2H-benzo[e][1,2]oxaborinine-8-carboxylic Acid] | < 64 | > 128 | – | –
22 | Nc1nc(/C(=N/O)C(=O)N[C@@H]2Cc3cccc(C(=O)O)c3OB2O)cs1 [Example 9, (S,Z)-3-(2-(2-aminothiazol-4-yl)-2-(hydroxyimino)acetamido)-2-hydroxy3,4-dihydro-2H-benzo[e][1,2]oxaborinine-8-carboxylic Acid] | > 128 | > 128 | – | –
23 | NCCON=C(C(=O)N[C@H]1Cc2cccc(C(=O)O)c2OB1O)c1nnn[nH]1 [Example 110, (R)-3-(2-((2-aminoethoxy)imino)-2-(1H-tetrazol-5-yl)acetamido)-2-hydroxy-3,4-dihydro-2H-benzo[e][1,2]oxaborinine-8-carboxylic Acid] | > 128 | > 128 | – | –
